Data taken from US9896418B2, “Aryl ethers and uses thereof” (Peloton Therapeutics, Inc., priority 2013, dated 2018).

System: HIF-2α HIS TAG-PASB Domain
Assay: HIF-2α Scintillation Proximity Assay (SPA)
Assay type: binding
Experimental: The percent inhibition was determined and IC50 values were calculated using the Dotmatics system based on the following equation: % inhibition=[(high control−sample)/(high control−low control)]×100.

| Structure (SMILES) | IC50 [nM] |
| --- | --- |
| CC(=O)c1c(S(=O)(=O)C(F)(F)F)ccc(Oc2cc(F)cc(C#N)c2)c1C#N [Compound 79, 2-Acetyl-6-(3-cyano-5-fluorophenoxy)-3-((trifluoromethyl)sulfonyl)benzonitrile] | 1300 |
| N#Cc1cc(F)cc(Oc2ccc(S(=O)(=O)C(F)F)c(CO)c2Br)c1 [Compound 80, 3-(2-Bromo-4-((difluoromethyl)sulfonyl)-3-(hydroxymethyl)phenoxy)-5-fluorobenzonitrile] | 22 |
| N#Cc1cccc(Oc2ccc(S(=O)(=O)C(F)F)c(CO)c2Br)c1 [Compound 81, 3-(2-Bromo-4-((difluoromethyl)sulfonyl)-3-(hydroxymethyl)phenoxy)benzonitrile] | 290 |
| NCc1c(S(=O)(=O)C(F)F)ccc(Oc2cc(F)cc(Cl)c2)c1Br [Compound 85, (2-Bromo-3-(3-chloro-5-fluorophenoxy)-6-((difluoromethyl)sulfonyl)phenyl)methanamine] | 2900 |
| CS(=O)(=O)c1ccc(Oc2cc(F)cc(Cl)c2)c2c1C(O)CC2 (stereo not drawn) [Compound 90, 4-(3-Chloro-5-fluorophenoxy)-7-(methylsulfonyl)-2,3-dihydro-1H-inden-1-ol] | 230 |
| CCS(=O)(=O)c1ccc(Oc2cc(F)cc(Cl)c2)c2c1C(O)CC2 (stereo not drawn) [Compound 91, 4-(3-Chloro-5-fluorophenoxy)-7-(ethylsulfonyl)-2,3-dihydro-1H-inden-1-ol] | 280 |
| CS(=O)(=O)c1ccc(Oc2cc(F)cc(C#N)c2)c2c1C(O)CCC2 (stereo not drawn) [Compound 95, 3-Fluoro-5-((5-hydroxy-4-(methylsulfonyl)-5,6,7,8-tetrahydronaphthalen-1-yl)oxy)benzonitrile] | 3600 |
| N#Cc1c(I)ccc(Oc2cc(F)cc(Cl)c2)c1Br [Compound 96, 2-Bromo-3-(3-chloro-5-fluorophenoxy)-6-iodobenzonitrile] | 3100 |
| Fc1cc(Cl)cc(Oc2ccc(C(F)(F)F)c(Cl)c2Br)c1 [Compound 97, 2-Bromo-3-chloro-1-(3-chloro-5-fluorophenoxy)-4-(trifluoromethyl)benzene] | 2200 |
| N#Cc1c(S(=O)(=O)C(F)(F)F)ccc(Oc2cc(F)cc(Cl)c2)c1Br [Compound 98, 2-Bromo-3-(3-chloro-5-fluorophenoxy)-6-((trifluoromethyl)sulfonyl)benzonitrile] | 15 |
| N#Cc1cc(F)cc(Oc2ccc(S(=O)(=O)C(F)(F)F)c(C#N)c2Br)c1 [Compound 100, 2-Bromo-3-(3-cyano-5-fluorophenoxy)-6-((trifluoromethyl)sulfonyl)benzonitrile] | 94 |
| O=Cc1c(S(=O)(=O)C(F)(F)F)ccc(Oc2cc(F)cc(Cl)c2)c1Br [Compound 101, 2-Bromo-3-(3-chloro-5-fluorophenoxy)-6-((trifluoromethyl)sulfonyl)benzaldehyde] | 26 |
| O=S(=O)(c1ccc(Oc2cc(F)cc(Cl)c2)c(Br)c1CO)C(F)(F)F [Compound 102, (2-Bromo-3-(3-chloro-5-fluorophenoxy)-6-((trifluoromethyl)sulfonyl)phenyl)methanol] | 120 |
| CC(O)c1c(S(=O)(=O)C(F)(F)F)ccc(Oc2cc(F)cc(Cl)c2)c1Br (stereo not drawn) [Compound 103, 1-(2-Bromo-3-(3-chloro-5-fluorophenoxy)-6-((trifluoromethyl)sulfonyl)phenyl)ethan-1-ol] | 300 |
| O=S(=O)(c1ccc(Oc2cc(F)cc(Cl)c2)c(Br)c1C=NO)C(F)(F)F [Compound 107, 2-Bromo-3-(3-chloro-5-fluorophenoxy)-6-((trifluoromethyl)sulfonyl)benzaldehyde oxime] | 160 |
| CNCc1c(S(=O)(=O)C(F)(F)F)ccc(Oc2cc(F)cc(Cl)c2)c1Br [Compound 109, 1-(2-Bromo-3-(3-chloro-5-fluorophenoxy)-6-((trifluoromethyl)sulfonyl)phenyl)-N-methylmethanamine] | 2100 |
| O=Cc1c(S(=O)(=O)C(F)(F)F)ccc(Oc2cc(F)cc(Cl)c2)c1Cl [Compound 112, 2-Chloro-3-(3-chloro-5-fluorophenoxy)-6-((trifluoromethyl)sulfonyl)benzaldehyde] | 40 |
| CNCc1c(S(=O)(=O)C(F)(F)F)ccc(Oc2cc(F)cc(Cl)c2)c1Cl [Compound 113, 1-(2-Chloro-3-(3-chloro-5-fluorophenoxy)-6-((trifluoromethyl)sulfonyl)phenyl)-N-methylmethanamine] | 2300 |
| O=S(=O)(c1ccc(Oc2cc(F)cc(Cl)c2)c(Cl)c1CNCCF)C(F)(F)F [Compound 114, N-(2-Chloro-3-(3-chloro-5-fluorophenoxy)-6-((trifluoromethyl)sulfonyl)benzyl)-2-fluoroethan-1-amine] | 1100 |
| N#Cc1cccc(Oc2ccc(S(=O)(=O)C(F)(F)F)cc2Br)c1 [Compound 117, 3-(2-Bromo-4-((trifluoromethyl)sulfonyl)phenoxy)benzonitrile] | 210 |
| N#Cc1cc(F)cc(Oc2ccc(S(=O)(=O)C(F)(F)F)cc2Br)c1 [Compound 118, 3-(2-Bromo-4-((trifluoromethyl)sulfonyl)phenoxy)-5-fluorobenzonitrile] | 160 |
| N#Cc1cc(F)cc(Oc2ccc(S(=O)(=O)C(F)(F)F)cc2C#N)c1 [Compound 120, 2-(3-Cyano-5-fluorophenoxy)-5-((trifluoromethyl)sulfonyl)benzonitrile] | 340 |
| COC(=O)c1cc(S(=O)(=O)C(F)(F)F)ccc1Oc1cc(F)cc(Cl)c1 [Compound 121, Methyl 2-(3-chloro-5-fluorophenoxy)-5-((trifluoromethyl)sulfonyl)benzoate] | 16000 |
| O=S(=O)(c1ccc(Oc2cc(F)cc(Cl)c2)c(CO)c1)C(F)(F)F [Compound 122, (2-(3-Chloro-5-fluorophenoxy)-5-((trifluoromethyl)sulfonyl)phenyl)methanol] | 1700 |
| O=Cc1cc(S(=O)(=O)C(F)(F)F)ccc1Oc1cc(F)cc(Cl)c1 [Compound 123, 2-(3-Chloro-5-fluorophenoxy)-5-((trifluoromethyl)sulfonyl)benzaldehyde] | 32 |
| NC(=O)c1cc(S(=O)(=O)C(F)(F)F)ccc1Oc1cc(F)cc(Cl)c1 [Compound 125, 2-(3-Chloro-5-fluorophenoxy)-5-((trifluoromethyl)sulfonyl)benzamide] | 8000 |

Further compounds by falling IC50, results first:

| IC50 [nM] | Structure (SMILES) |
| --- | --- |
| 71000 | CC(=O)NCc1c(S(=O)(=O)C(F)F)ccc(Oc2cc(F)cc(Cl)c2)c1Br [Compound 86, N-(2-Bromo-3-(3-chloro-5-fluorophenoxy)-6-((difluoromethyl)sulfonyl)benzyl)acetamide] |
| 15000 | COC(=O)c1c([S+]([O-])C(F)F)ccc(Oc2cc(F)cc(Cl)c2)c1Br (stereo not drawn) [Compound 82, Methyl 2-bromo-3-(3-chloro-5-fluorophenoxy)-6-((difluoromethyl)sulfinyl)benzoate] |
| 12000 | N#Cc1c(Oc2cc(F)cc(Cl)c2)ccc(S(=O)(=O)C(F)(F)F)c1C(=O)O [Compound 105, 3-(3-Chloro-5-fluorophenoxy)-2-cyano-6-((trifluoromethyl)sulfonyl)benzoic acid] |
| 5800 | O=S(=O)(c1ccc(Oc2cc(F)cc(Cl)c2)c(Br)c1CNCCO)C(F)(F)F [Compound 108, 2-((2-Bromo-3-(3-chloro-5-fluorophenoxy)-6-((trifluoromethyl)sulfonyl)benzyl)amino)ethan-1-ol] |
| 3200 | CC(C)(C)OC(=O)NCc1c(S(=O)(=O)C(F)F)ccc(Oc2cc(F)cc(Cl)c2)c1Br [Compound 83, tert-butyl (2-bromo-3-(3-chloro-5-fluorophenoxy)-6-((difluoromethyl)sulfonyl)benzyl)carbamate] |
| 2800 | O=S(=O)(c1ccc(Oc2cc(F)cc(Cl)c2)c(CCO)c1)C(F)(F)F [Compound 127, 2-[2-(3-Chloro-5-fluoro-phenoxy)-5-(trifluoromethylsulfonyl)phenyl]ethanol] |
| 2200 | O=S(=O)(c1cc(C(F)(F)F)ccc1Oc1cc(F)cc(Cl)c1)C(F)(F)F [Compound 129, 1-(3-Chloro-5-fluorophenoxy)-4-(trifluoromethyl)-2-((trifluoromethyl)sulfonyl)benzene] |
| 1900 | N#Cc1cc(F)cc(Oc2ccc(S(=O)(=O)C(F)F)c(C#N)c2Br)c1 [Compound 77, 2-Bromo-3-(3-cyano-5-fluorophenoxy)-6-((difluoromethyl)sulfonyl)benzonitrile] |
| 1600 | O=S(=O)(c1ccc(Oc2cc(F)cc(Cl)c2)c(Br)c1CNCc1ccccc1)C(F)(F)F [Compound 110, N-Benzyl-1-(2-bromo-3-(3-chloro-5-fluorophenoxy)-6-((trifluoromethyl)sulfonyl)phenyl)methanamine] |
| 1400 | O=S(=O)(c1ccc(Oc2cccc(C(F)(F)F)c2)c(Br)c1CO)C(F)F [Compound 89, (2-Bromo-6-((difluoromethyl)sulfonyl)-3-(3-(trifluoromethyl)phenoxy)phenyl)methanol] |
| 1000 | CC(=NO)c1c(S(=O)(=O)C(F)(F)F)ccc(Oc2cc(F)cc(Cl)c2)c1Br [Compound 106, 1-(2-Bromo-3-(3-chloro-5-fluorophenoxy)-6-((trifluoromethyl)sulfonyl)phenyl)ethan-1-one oxime] |
| 270 | CC(=O)c1c(S(=O)(=O)C(F)(F)F)ccc(Oc2cc(F)cc(Cl)c2)c1Br [Compound 104, 1-(2-Bromo-3-(3-chloro-5-fluorophenoxy)-6-((trifluoromethyl)sulfonyl)phenyl)ethan-1-one] |
| 170 | CS(=O)(=O)c1ccc(Oc2cc(F)cc(F)c2)c(C(F)F)c1C#N [Compound 93, 2-(Difluoromethyl)-3-(3,5-difluorophenoxy)-6-(methylsulfonyl)benzonitrile] |
| 130 | CS(=O)(=O)c1ccc(Oc2cc(F)cc(C#N)c2)c(C(F)F)c1C#N [Compound 94, 3-(3-Cyano-5-fluorophenoxy)-2-(difluoromethyl)-6-(methylsulfonyl)benzonitrile] |
| 37 | CS(=O)(=O)c1ccc(Oc2cc(F)cc(Cl)c2)c(C(F)F)c1C#N [Compound 92, 3-(3-Chloro-5-fluorophenoxy)-2-(difluoromethyl)-6-(methylsulfonyl)benzonitrile] |
| 15 | N#Cc1c(S(=O)(=O)C(F)(F)F)ccc(Oc2cc(F)cc(Cl)c2)c1Cl [Compound 111, 2-Chloro-3-(3-chloro-5-fluorophenoxy)-6-((trifluoromethyl)sulfonyl)benzonitrile] |
